Active and inactive are the calls of the source. The calls are words filed in the database; no cut-off is given here.
Assays:
HL-60 [1] = experiment: Induction of ROS generation in human HL-60 cells assessed as increase in extracellular ROS level at 6.25 uM incubated for 3 hrs by NBT reduction assay; type: functional, cell-based
B16 = experiment: Antiproliferative activity against mouse B16 cells assessed as inhibition of cell growth incubated for 48 hrs by CCK-8 assay; type: functional, cell-based; details: B16, 48 h
HL-60 [2] = experiment: Induction of cell morphological changes in human HL-60 cells assessed as appearance of apoptotic bodies at 3 uM incubated for 48 hrs by Hoechst 33342 staining based microscopic analysis; type: functional
HL-60 [3] = experiment: Antiproliferative activity against human HL-60 cells assessed as inhibition of cell growth incubated for 48 hrs by CCK-8 assay; type: functional, cell-based; details: HL-60, 48 h
HL-60 [4] = experiment: Antiproliferative activity against human HL-60 cells assessed as reduction in cell viability at 12.5 uM incubated for 48 hrs by CCK-8 assay relative to control; type: functional
HL-60 [5] = experiment: Induction of ROS generation in human HL-60 cells assessed as fold increase in intracellular ROS level at 6.25 uM incubated for 3 hrs by NBT reduction assay relative to control; type: functional
HL-60 [6] = experiment: Induction of cell morphological changes in human HL-60 cells assessed as chromatin condensation at 3 uM incubated for 48 hrs by Hoechst 33342 staining based microscopic analysis; type: functional

Row | IC50 (B16) | IC50 (HL-60 [3]) | SMILES | Activity (HL-60 [1]) | Activity (HL-60 [2]) | Activity (HL-60 [4]) | fold change (FC) (HL-60 [5]) | Activity (HL-60 [6])
1 | 2950 nM | 1570 nM | O=c1c(=O)c2c(oc3c(=O)c4ccccc4c(=O)c32)c2ccccc12 | Active | Active | <10% | >4 | Active
2 | – | > 25000 nM | COC1=C(c2ccc(OC)cc2)C(=O)C(OC)=C(c2ccc(OC)cc2)C1=O | – | – | – | – | –
3 | 2380 nM | 1730 nM | O=c1c2ccccc2c(=O)c2c1sc1c(=O)c3ccccc3c(=O)c12 | – | Active | <10% | >4 | Active
4 | – | > 25000 nM | COc1ccc(C2=C(O)C(=O)C(c3ccc(OC)cc3)=C(O)C2=O)cc1 | – | – | – | – | –
5 | 180 nM | 70 nM | O=c1c2ccccc2c(=O)c2c1oc1c(=O)c3ccccc3c(=O)c12 | – | Active | <10% | >4 | Active
6 | – | 5910 nM | COC1=C(c2ccccc2)C(=O)C(OC)=C(c2ccccc2)C1=O [BETULINAN A] | – | – | – | – | –
7 | – | 5710 nM | O=C1C(O)=C(c2ccc(O)cc2)C(=O)C(O)=C1c1ccc(O)cc1 | – | – | – | – | –
8 | – | > 25000 nM | COC1=C(c2ccc(O)cc2)C(=O)C(OC)=C(c2ccc(O)cc2)C1=O | – | – | – | – | –

The remaining lines, values behind:

Row | SMILES | IC50 (B16) | IC50 (HL-60 [3]) | Activity (HL-60 [1]) | Activity (HL-60 [2]) | Activity (HL-60 [4]) | fold change (FC) (HL-60 [5]) | Activity (HL-60 [6])
9 | COc1ccc2c(=O)c3c(oc4c5ccc(OC)cc5c(=O)c(=O)c43)c(=O)c2c1 | – | – | – | – | 74% | – | –
10 | O=C1C(OC(=O)c2ccccc2)=C(c2ccc(O)cc2)C(=O)C(OC(=O)c2ccccc2)=C1c1ccc(O)cc1 | – | > 25000 nM | – | – | – | – | –
11 | O=c1c2ccccc2c(=O)c2c1[se]c1c(=O)c3ccccc3c(=O)c12 | 2830 nM | 2910 nM | – | Active | <10% | >4 | Active
12 | COc1ccc2c(=O)c3sc4c(=O)c5ccc(OC)cc5c(=O)c4c3c(=O)c2c1 | – | – | – | – | 31.8% | – | –
13 | O=C1C(O)=C(c2ccccc2)C(=O)C(O)=C1c1ccccc1 | – | > 25000 nM | – | – | – | – | –
14 | COc1ccc2c(=O)c3oc4c5cc(OC)ccc5c(=O)c(=O)c4c3c(=O)c2c1 | – | – | – | – | 11% | – | –

— ChEMBL document CHEMBL5214937, “Comparative analysis of p-terphenylquinone and seriniquinone derivatives as reactive oxygen species-modulating agents” (Bioorg Med Chem Lett, 2022)
